# Assay results published in ChEMBL document CHEMBL1135048, “Synthesis and biological evaluation of 2-indolyloxazolines as a new class of tubulin polymerization inhibitors. Discovery of A-289099 as an orally active antitumor agent” (Bioorg Med Chem Lett, 2002).
# Experiments:
# [1] = Oral bioavailability in rat (dose single 10 mg/kg); format: ADME, organism-based; conditions: in vivo
# [2] = test system: HCT-15; assay: Antiproliferative activity against the MDR positive human colon adenocarcinoma cell line HCT-15; format: functional, cell-based
# [3] = test system: NCI-H460; assay: Antiproliferative activity against the human non small cell lung carcinoma cell line NCI-H460; format: functional, cell-based
# [4] = species on record: Bos taurus; assay: (§1) Inhibition of bovine brain microtubule polymerization; format: functional
# [5] = target: T1, Tubulin beta chain (Bos taurus, UniProt Q6B856); assay: Binding constant at colchicine site of bovine brain tubulin
# T1 sequence (Q6B856 whole entry): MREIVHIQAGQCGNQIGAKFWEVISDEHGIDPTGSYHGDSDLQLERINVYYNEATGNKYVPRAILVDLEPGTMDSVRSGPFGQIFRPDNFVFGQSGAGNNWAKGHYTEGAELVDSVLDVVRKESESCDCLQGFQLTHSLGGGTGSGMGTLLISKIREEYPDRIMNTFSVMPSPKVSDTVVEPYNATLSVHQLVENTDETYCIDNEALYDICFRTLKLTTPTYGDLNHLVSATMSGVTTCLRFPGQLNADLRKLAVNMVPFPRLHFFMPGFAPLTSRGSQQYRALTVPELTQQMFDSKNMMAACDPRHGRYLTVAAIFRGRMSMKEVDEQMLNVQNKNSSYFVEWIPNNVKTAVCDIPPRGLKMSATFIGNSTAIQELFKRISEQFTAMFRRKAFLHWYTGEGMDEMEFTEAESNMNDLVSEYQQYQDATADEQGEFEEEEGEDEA
# [6] = as §1; format: functional, Bos taurus
# [7] = Oral bioavailability in monkey (dose 5 mg/kg); format: ADME, organism-based; conditions: cercopithecidae, in vivo
# [8] = Oral bioavailability in mouse (dose 10 mg/kg); format: ADME, organism-based; conditions: in vivo
# [9] = Oral bioavailability in dog (dose 5 mg/kg); format: ADME, organism-based, Canis lupus familiaris; conditions: in vivo
# [10] = Partition coefficient of compound; format: physicochemical; conditions: octanol/water
# [11] = Half life period in rat after 5 mg/kg dose; format: ADME, organism-based; design: dose 5 mg/kg; conditions: in vivo
# [12] = test system: Mus musculus; assay: Increase in life span of M5076 murine ovarian sarcoma bearing mice at a dose of 50 mg/Kg/day; format: functional
# [13] = Area under curve value in dog at a dose of 5 mg/kg; format: ADME, organism-based, Canis lupus familiaris; design: dose 5 mg/kg; conditions: in vivo
# [14] = test system: Mus musculus; assay: In vivo efficacy to delay 1 g volume of M5076 murine ovarian sarcoma formation in mice at a dose of 50 mg/Kg/day; format: functional
# [15] = Half life period in mouse after 10 mg/kg dose; format: ADME, organism-based; design: dose 10 mg/kg; conditions: in vivo
# [16] = test system: A549; assay: Activity against human lung cancer with mutated beta-tubulin (A549-T2415); format: functional, cell-based
# [17] = test system: Mus musculus; assay: Increase in life span of M5076 murine ovarian sarcoma bearing mice at a dose of 100 mg/kg/day; format: functional
# [18] = test system: HCT-15; assay: Inhibitory concentration of compound against of microtubule […] in human HCT-15 colon carcinoma; format: functional, cell-based
# [19] = Solubility of compound in pH 7.4 phosphate buffer; format: physicochemical
# [20] = pKa of the compound; format: physicochemical
# [21] = Half life period in monkey after 5 mg/kg dose; format: ADME, organism-based; design: dose 5 mg/kg; conditions: cercopithecidae, in vivo
# [22] = Half life period in dog after 5 mg/kg dose; format: ADME, organism-based, Canis lupus familiaris; design: dose 5 mg/kg; conditions: in vivo
# [23] = Area under curve value in mouse at a dose of 10 mg/kg; format: ADME, organism-based; design: dose 10 mg/kg; conditions: in vivo
# [24] = Solubility of compound in 0.1 M HCl; format: physicochemical; conditions: read-out: S
# [25] = test system: Mus musculus; assay: In vivo efficacy to delay 1 g volume of M5076 murine ovarian sarcoma formation in mice at a dose of 100 mg/Kg/day; format: functional
# [26] = Area under curve value in rat at a dose of 5 mg/kg; format: ADME, organism-based; design: dose 5 mg/kg; conditions: in vivo
# [27] = Oral bioavailability in rat (dose 5 mg/kg; format: ADME, organism-based; conditions: in vivo
# [28] = Area under curve value in monkey at a dose of 5 mg/kg; format: ADME, organism-based; design: dose 5 mg/kg; conditions: cercopithecidae, in vivo
# [29] = Half life period in mouse after 10 mg/Kg dose; format: ADME, organism-based; conditions: in vivo
# [30] = Half life period in rat after 5 mg/Kg dose; format: ADME, organism-based; conditions: in vivo
# [31] = target: T1, Tubulin beta chain; assay: Activity towards binding at colchicine site of bovine brain tubulin
structure (smiles),measurement,setting,value
COCn1ccc2cc(C3=NCC(c4cc(OC)c(OC)c(OC)c4)O3)ccc21 (centres undefined),bioavailability,[1],34.3%
same,IC50,[2],480 nM
same,IC50,[3],680 nM
COc1ccc(/C=C\c2cc(OC)c(OC)c(OC)c2)cc1O [COMBRETASTATIN A4],IC50,[4],1600 nM
COc1cc(C2CN=C(c3cc4ccccc4n3C)O2)cc(OC)c1OC (centres undefined),IC50,[2],660 nM
same,IC50,[3],1500 nM
COc1cc(C2CN=C(c3ccc4ncccc4c3)O2)cc(OC)c1OC (centres undefined),IC50,[2],2400 nM
same,IC50,[3],3200 nM
COc1cc(C2CN=C(c3ccc4nccn4c3)O2)cc(OC)c1OC (centres undefined),IC50,[2],40000 nM
same,IC50,[3],16000 nM
COc1cc(C2CN=C(c3ccc4[nH]c(O)nc4c3)O2)cc(OC)c1OC (centres undefined),IC50,[2],1200 nM
same,IC50,[3],> 100000 nM
COc1cc(C2CN=C(c3cccc4ccn(C)c34)O2)cc(OC)c1OC (centres undefined),IC50,[2],15000 nM
same,IC50,[3],150000 nM
COc1cc(C2CN=C(c3ccc4c(ccn4C4CC4)c3)O2)cc(OC)c1OC (centres undefined),bioavailability,[1],55.8%
same,IC50,[2],2900 nM
same,IC50,[3],2900 nM
COc1cc(C2CN=C(c3cn(C)c4ccccc34)O2)cc(OC)c1OC (centres undefined),bioavailability,[1],2.5%
same,IC50,[2],37 nM
same,IC50,[3],87 nM
CC(=O)O[C@H]1C(=O)[C@@]2(C)[C@H]([C@H](OC(=O)c3ccccc3)[C@]3(O)C[C@H](OC(=O)[C@H](O)[C@@H](NC(=O)c4ccccc4)c4ccccc4)C(C)=C1C3(C)C)[C@]1(OC(C)=O)CO[C@@H]1C[C@@H]2O [PACLITAXEL],IC50,[3],> 10 nM
COc1cc(C2CN=C(c3ccc4c(ccn4S(C)(=O)=O)c3)O2)cc(OC)c1OC (centres undefined),IC50,[2],16300 nM
same,IC50,[3],8180 nM
COc1cc(C2CN=C(c3ccc4c(c3)nc(C)n4C)O2)cc(OC)c1OC (centres undefined),IC50,[2],1300 nM
same,IC50,[3],1200 nM
COc1cc(C2CN=C(c3ccc4c(c3)CCN4C)O2)cc(OC)c1OC (centres undefined),IC50,[2],510 nM
same,IC50,[3],810 nM
COc1cc(C2CN=C(c3cccc4[nH]ccc34)O2)cc(OC)c1OC (centres undefined),bioavailability,[1],0%
same,IC50,[2],61 nM
same,IC50,[3],57 nM
COc1cc(C2CN=C(c3ccc4cc[nH]c4c3)O2)cc(OC)c1OC (centres undefined),bioavailability,[1],10.5%
same,IC50,[2],120 nM
same,IC50,[3],330 nM
COc1cc(C2CN=C(c3cc4ccccc4[nH]3)O2)cc(OC)c1OC (centres undefined),bioavailability,[1],40%
same,IC50,[2],150 nM
same,IC50,[3],350 nM
COc1cc(C2CN=C(c3ccc4[nH]ccc4c3)O2)cc(OC)c1OC (centres undefined),bioavailability,[1],38.1%
same,IC50,[2],200 nM
same,IC50,[3],100 nM
CC[C@]1(O)C[C@@H]2CN(CCc3c([nH]c4ccccc34)[C@@](C(=O)OC)(c3cc4c(cc3OC)N(C)[C@H]3[C@@](O)(C(=O)OC)[C@H](OC(C)=O)[C@]5(CC)C=CCN6CC[C@]43[C@@H]65)C2)C1 [VINBLASTINE],Ki,[5],> 100000 nM
same,IC50,[2],43 nM
same,IC50,[3],3.4 nM
same,IC50,[6],1000 nM
COc1cc(C2CN=C(c3ccc4[nH]cnc4c3)O2)cc(OC)c1OC (centres undefined),IC50,[2],6400 nM
same,IC50,[3],7100 nM
COc1cc2c(c(OC)c1OC)-c1ccc(OC)c(=O)cc1[C@@H](NC(C)=O)CC2 [COLCHICINE],IC50,[2],140 nM
same,IC50,[3],46 nM
CCn1ccc2cc(C3=NCC(c4cc(OC)c(OC)c(OC)c4)O3)ccc21 (centres undefined),bioavailability,[1],11.1%
same,IC50,[2],70 nM
same,IC50,[3],49 nM
COc1cc(C2CN=C(c3cccc4c3ccn4C)O2)cc(OC)c1OC (centres undefined),bioavailability,[1],2.5%
same,IC50,[2],37 nM
same,IC50,[3],87 nM
COc1cc(C2CN=C(c3ccc4cc(C)cn4c3)O2)cc(OC)c1OC (centres undefined),IC50,[2],520 nM
same,IC50,[3],520 nM
COc1cc(C2CN=C(c3ccc4c(c3)cc(C)n4C)O2)cc(OC)c1OC (centres undefined),IC50,[2],170 nM
same,IC50,[3],210 nM
COc1cc(C2CN=C(c3c[nH]c4ccccc34)O2)cc(OC)c1OC (centres undefined),bioavailability,[1],0%
same,IC50,[2],67 nM
same,IC50,[3],82 nM
COc1cc([C@H]2CN=C(c3ccc4c(ccn4C)c3)O2)cc(OC)c1OC,bioavailability,[7],18.6%
same,bioavailability,[8],15.1%
same,bioavailability,[9],6.5%
same,logD,[10],3.94
same,half-life,[11],2.1 h
same,ILS at 50 mg/kg/day,[12],139%
same,AUC,[13],160 ng·h/mL
same,Mean tumor delay,[14],19 days
same,half-life,[15],1.1 h
same,IC50,[2],8.6 nM
same,IC50,[16],6.3 nM
same,ILS at 100 mg/kg/day,[17],206%
same,Concentration,[18],44 nM
same,IC50,[3],6.2 nM
same,solubility,[19],0.7 µg/mL
same,pKa,[20],5
same,IC50,[6],2300 nM
same,half-life,[21],1.3 h
same,half-life,[22],3.3 h
same,AUC,[23],5690 ng·h/mL
same,solubility,[24],1270 µg/mL
same,Mean tumor delay,[25],28.4 days
same,AUC,[26],7180 ng·h/mL
same,bioavailability,[27],17.1%
same,AUC,[28],1750 ng·h/mL
COc1cc(C2CN=C(c3ccc4ccn(C)c4c3)O2)cc(OC)c1OC (centres undefined),bioavailability,[1],0%
same,IC50,[2],280 nM
same,IC50,[3],420 nM
COc1cc([C@@H]2CN=C(c3ccc4c(ccn4C)c3)O2)cc(OC)c1OC,bioavailability,[7],16.2%
same,half-life,[29],1.3 h
same,bioavailability,[8],21%
same,bioavailability,[9],7%
same,AUC,[13],330 ng·h/mL
same,IC50,[2],390 nM
same,IC50,[3],460 nM
same,IC50,[6],740000 nM
same,half-life,[21],1.4 h
same,half-life,[30],1.3 h
same,half-life,[22],2.9 h
same,AUC,[23],400 ng·h/mL
same,AUC,[26],3040 ng·h/mL
same,bioavailability,[27],44%
same,AUC,[28],890 ng·h/mL
COc1cc(C2CN=C(c3ccc4c(ccn4C)c3)O2)cc(OC)c1OC (centres undefined),bioavailability,[1],34.7%
same,IC50,[2],16 nM
same,IC50,[3],14 nM
COc1cc(C2OC(c3ccc(N)c(C)c3)=NN2C(C)=O)cc(OC)c1OC (centres undefined),IC50,[31],3400 nM
COc1cc(C2CN=C(c3ccnc4ccccc34)O2)cc(OC)c1OC (centres undefined),IC50,[2],44000 nM
same,IC50,[3],37000 nM
COc1cc(C2CN=C(c3ccc4cncn4c3)O2)cc(OC)c1OC (centres undefined),IC50,[2],28000 nM
same,IC50,[3],100000 nM
COc1cc(C2CN=C(c3cnc4ccccc4c3)O2)cc(OC)c1OC (centres undefined),IC50,[2],160000 nM
same,IC50,[3],270000 nM
COc1cc(C2CN=C(c3ccc4c(ccn4CC(F)(F)F)c3)O2)cc(OC)c1OC (centres undefined),bioavailability,[1],19.8%
same,IC50,[2],3800 nM
same,IC50,[3],4200 nM
COc1cc(C2CN=C(c3cccc4cc[nH]c34)O2)cc(OC)c1OC (centres undefined),bioavailability,[1],0%
same,IC50,[2],540 nM
same,IC50,[3],470 nM
